Measurements: patent publication US20230139171A1 (SITA Information Networking Computing UK Limited, priority 2019, published 2023)

Key:
Type in all cases: cell-based
human TLR7 = target: T1, human TLR7 (Homo sapiens, UniProt Q9NYK1); assay: TLR7 inhibition reporter assay (HEK-Blue cells, SEAP reporter, gardiquimod stimulation); details: HEK-Blue cells overexpressing human TLR7, SEAP reporter, gardiquimod 7.5 μM; read-out: TLR7 IC50
T1 construct: host or cells: HEK-Blue cells
T1 sequence (Q9NYK1 27-1049): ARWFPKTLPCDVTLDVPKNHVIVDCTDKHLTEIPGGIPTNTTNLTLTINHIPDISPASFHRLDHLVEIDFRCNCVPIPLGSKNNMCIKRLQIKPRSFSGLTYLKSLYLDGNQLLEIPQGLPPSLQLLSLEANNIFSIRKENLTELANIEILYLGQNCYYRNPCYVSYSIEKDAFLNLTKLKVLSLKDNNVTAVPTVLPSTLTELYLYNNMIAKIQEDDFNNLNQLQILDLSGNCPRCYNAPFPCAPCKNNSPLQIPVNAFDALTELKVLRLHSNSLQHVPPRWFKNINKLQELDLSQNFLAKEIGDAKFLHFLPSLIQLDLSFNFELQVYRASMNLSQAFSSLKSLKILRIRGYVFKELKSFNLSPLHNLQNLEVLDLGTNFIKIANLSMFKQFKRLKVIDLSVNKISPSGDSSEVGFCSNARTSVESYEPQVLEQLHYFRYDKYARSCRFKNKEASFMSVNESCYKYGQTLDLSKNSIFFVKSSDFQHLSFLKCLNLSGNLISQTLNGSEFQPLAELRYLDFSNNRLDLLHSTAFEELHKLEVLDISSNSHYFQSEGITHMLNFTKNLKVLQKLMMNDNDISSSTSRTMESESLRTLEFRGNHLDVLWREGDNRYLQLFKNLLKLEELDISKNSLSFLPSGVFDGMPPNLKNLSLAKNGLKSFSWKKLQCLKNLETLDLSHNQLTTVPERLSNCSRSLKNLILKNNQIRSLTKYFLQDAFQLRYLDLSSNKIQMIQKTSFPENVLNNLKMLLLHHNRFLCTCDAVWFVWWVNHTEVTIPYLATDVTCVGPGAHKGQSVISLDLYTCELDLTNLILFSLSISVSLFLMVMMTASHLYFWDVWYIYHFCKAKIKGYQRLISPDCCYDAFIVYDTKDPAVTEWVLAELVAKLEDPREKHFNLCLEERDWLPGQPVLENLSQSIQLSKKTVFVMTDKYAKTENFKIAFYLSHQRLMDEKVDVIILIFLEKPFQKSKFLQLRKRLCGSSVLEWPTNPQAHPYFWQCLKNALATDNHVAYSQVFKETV
How it was run: (§1)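 Agonists used: gardiquimod 7.5 μM (TLR7), R848 15.9 μM (TLR8), ODN2006 5 nM (TLR9), added after 30 min room-temperature compound pre-treatment (0.05 nM–50 μM) of receptor-overexpressing HEK-Blue cells. SEAP reporter (NF-κB/AP-1 driven) read after 22 h at 37 °C; inhibition scaled between agonist+DMSO and reference-inhibitor wells.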

human TLR8 = target: T2, human TLR8 (Homo sapiens, UniProt Q9NR97); assay: TLR8 inhibition reporter assay (HEK-Blue cells, SEAP reporter, R848 stimulation); details: HEK-Blue cells overexpressing human TLR8, SEAP reporter, R848 15.9 μM; read-out: TLR8 IC50
T2 construct: host or cells: HEK-Blue cells
T2 sequence (Q9NR97 27-1041): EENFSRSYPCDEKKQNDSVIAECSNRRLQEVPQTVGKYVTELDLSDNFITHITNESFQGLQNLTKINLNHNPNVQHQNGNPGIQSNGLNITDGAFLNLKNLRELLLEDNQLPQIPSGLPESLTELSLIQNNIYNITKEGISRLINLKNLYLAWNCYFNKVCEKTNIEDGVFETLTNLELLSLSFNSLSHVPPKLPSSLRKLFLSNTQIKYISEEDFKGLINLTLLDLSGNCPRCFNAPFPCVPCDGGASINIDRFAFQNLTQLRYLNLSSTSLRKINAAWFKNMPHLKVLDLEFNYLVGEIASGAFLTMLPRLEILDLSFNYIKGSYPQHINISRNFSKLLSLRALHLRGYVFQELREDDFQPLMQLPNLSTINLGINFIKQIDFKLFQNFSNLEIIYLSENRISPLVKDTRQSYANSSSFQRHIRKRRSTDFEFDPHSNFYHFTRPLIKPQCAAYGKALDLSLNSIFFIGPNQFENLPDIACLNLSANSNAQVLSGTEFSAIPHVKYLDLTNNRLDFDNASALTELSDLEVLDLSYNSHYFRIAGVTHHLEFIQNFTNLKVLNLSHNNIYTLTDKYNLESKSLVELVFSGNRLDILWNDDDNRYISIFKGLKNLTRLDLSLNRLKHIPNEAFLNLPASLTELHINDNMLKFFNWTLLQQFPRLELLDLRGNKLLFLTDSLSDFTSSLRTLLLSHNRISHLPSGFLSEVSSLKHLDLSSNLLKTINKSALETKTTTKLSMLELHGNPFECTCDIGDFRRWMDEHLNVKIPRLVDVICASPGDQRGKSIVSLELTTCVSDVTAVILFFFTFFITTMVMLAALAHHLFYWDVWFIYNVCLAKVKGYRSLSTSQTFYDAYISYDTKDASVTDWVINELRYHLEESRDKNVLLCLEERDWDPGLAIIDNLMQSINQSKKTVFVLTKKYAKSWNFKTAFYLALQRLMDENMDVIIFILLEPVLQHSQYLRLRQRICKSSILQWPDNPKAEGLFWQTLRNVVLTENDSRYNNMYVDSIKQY
How it was run: as §1

human TLR9 = target: T3, human TLR9 (Homo sapiens, UniProt Q9NR96); assay: TLR9 inhibition reporter assay (HEK-Blue cells, SEAP reporter, ODN2006 stimulation); details: HEK-Blue cells overexpressing human TLR9, SEAP reporter, ODN2006 5 nM
T3 construct: host or cells: HEK-Blue cells
T3 sequence (Q9NR96 26-1032): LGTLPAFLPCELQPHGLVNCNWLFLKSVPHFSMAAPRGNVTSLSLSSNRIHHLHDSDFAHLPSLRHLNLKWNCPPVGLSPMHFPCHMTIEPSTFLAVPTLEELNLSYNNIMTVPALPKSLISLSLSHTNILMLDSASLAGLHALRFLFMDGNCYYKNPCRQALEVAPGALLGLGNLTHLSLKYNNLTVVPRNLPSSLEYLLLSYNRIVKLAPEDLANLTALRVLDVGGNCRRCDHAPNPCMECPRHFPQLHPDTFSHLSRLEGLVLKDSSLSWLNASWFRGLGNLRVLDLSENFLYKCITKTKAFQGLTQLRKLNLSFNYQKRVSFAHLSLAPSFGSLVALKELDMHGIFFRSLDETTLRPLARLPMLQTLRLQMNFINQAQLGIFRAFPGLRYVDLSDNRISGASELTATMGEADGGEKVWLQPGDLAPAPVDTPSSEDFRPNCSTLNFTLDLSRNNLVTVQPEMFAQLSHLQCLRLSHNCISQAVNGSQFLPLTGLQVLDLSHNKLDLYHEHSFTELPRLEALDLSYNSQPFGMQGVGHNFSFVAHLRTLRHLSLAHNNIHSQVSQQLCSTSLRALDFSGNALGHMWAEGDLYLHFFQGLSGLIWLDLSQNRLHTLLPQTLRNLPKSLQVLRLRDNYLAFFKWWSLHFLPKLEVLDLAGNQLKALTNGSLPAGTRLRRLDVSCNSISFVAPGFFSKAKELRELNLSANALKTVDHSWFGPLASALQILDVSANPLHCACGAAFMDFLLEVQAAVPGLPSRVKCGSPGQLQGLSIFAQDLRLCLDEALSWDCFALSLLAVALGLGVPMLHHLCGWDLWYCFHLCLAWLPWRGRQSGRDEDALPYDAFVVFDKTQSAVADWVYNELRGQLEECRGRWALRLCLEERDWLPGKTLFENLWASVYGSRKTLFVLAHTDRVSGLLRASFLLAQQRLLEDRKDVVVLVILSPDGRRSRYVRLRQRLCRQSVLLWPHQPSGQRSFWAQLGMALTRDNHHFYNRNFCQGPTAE
Method: TLR7/8/9 Inhibition Reporter Assays
HEK-Blue™-cells (Invivogen) overexpressing human TLR7, TLR8 or TLR9 receptors were used for screening inhibitors of these receptors using an inducible SEAP (secreted embryonic alkaline phosphatase) reporter gene under the control of the IFN-β minimal promoter fused to five NF-κB and AP-1-binding sites. Briefly, cells are seeded into Greiner 384 well plates (15000 cells per well for TLR7, 20,000 for TLR8 and 25,000 for TLR9) and then treated with test compounds in DMSO to yield a final dose response concentration range of 0.05 nM-50 μM. After a 30 minute compound pre-treatment at room temperature, the cells are then stimulated with a TLR7 ligand (gardiquimod at a final concentration of 7.5 μM), TLR8 ligand (R848 at a final concentration of 15.9 μM) or TLR9 ligand (ODN2006 at a final concentration of 5 nM) to activate NF-κB and AP-1 which induce the production of SEAP. After a 22 hour incubation at 37° C., 5% CO2, SEAP levels are determined with the addition of HEK-Blue™ Detection reagent (Invivogen), a cell culture medium that allows for detection of SEAP, according to manufacturer's specifications. The percent inhibition is determined as the % reduction in the HEK-Blue signal present in wells treated with agonist plus DMSO alone compared to wells treated with a known inhibitor.

| SMILES | IC50 (human TLR7) | IC50 (human TLR8) | IC50 (human TLR9) |
| --- | --- | --- | --- |
| COc1cc(-c2[nH]c3sc(C4CCC(N5CC(CO)(CO)C5)CC4)nc3c2C(C)C)cn2ncnc12 (single isomer, unassigned) [Example 67, (1-(4-(6-isopropyl-5-(8-methoxy-[1,2,4]triazolo[1,5-a]pyridin-6-yl)-4H-pyrrolo[3,2-d]thiazol-2-yl)cyclohexyl)azetidine-3,3-diyl)dimethanol] | 12.6 nM | 12.9 nM | 2250 nM |
| COc1cc(-c2[nH]c3sc(C4CCC(NC5(C)COC5)CC4)nc3c2C(C)C)cn2ncnc12 (single isomer, unassigned) [Example 71, N-(4-(6-isopropyl-5-(8-methoxy-[1,2,4]triazolo[1,5-a]pyridin-6-yl)-4H-pyrrolo[3,2-d]thiazol-2-yl)cyclohexyl)-3-methyloxetan-3-amine] | 6.92 nM | 19 nM | 5810 nM |
| COCCN1CCN(c2nc3c(C(C)C)c(-c4cc(C)c5ncnn5c4)[nH]c3s2)[C@H](C)C1 [Example 357, (R)-6-isopropyl-2-(4-(2-methoxyethyl)-2-methylpiperazin-1-yl)-5-(8-methyl-[1,2,4]triazolo[1,5-a]pyridin-6-yl)-4H-pyrrolo[3,2-d]thiazole] | 1280 nM |  | 38100 nM |
| Cc1cc(-c2[nH]c3sc(N4CCN(CC(C)C)C[C@H]4C)nc3c2C(C)C)cn2ncnc12 [Example 361, (R)-2-(4-isobutyl-2-methylpiperazin-1-yl)-6-isopropyl-5-(8-methyl-[1,2,4]triazolo[1,5-a]pyridin-6-yl)-4H-pyrrolo[3,2-d]thiazole] | 719 nM |  | 45600 nM |

Compounds with a lower IC50 (human TLR7), results first:

| IC50 (human TLR7) | IC50 (human TLR8) | IC50 (human TLR9) | SMILES |
| --- | --- | --- | --- |
| 4.92 nM | 1.5 nM | 43500 nM | Cc1c(-c2[nH]c3sc(C4CCC(NC5CCS(=O)(=O)C5)CC4)nc3c2C(C)C)cn2ncnc2c1C (racemic) [Example 230, 3-((4-(5-(7,8-dimethyl-[1,2,4]triazolo[1,5-a]pyridin-6-yl)-6-isopropyl-4H-pyrrolo[3,2-d]thiazol-2-yl)cyclohexyl)amino)tetrahydrothiophene 1,1-dioxide] |
| 3.59 nM | 16.9 nM | 5710 nM | COc1cc(-c2[nH]c3sc(C4CCC(NC5COC5)CC4)nc3c2C(C)C)cn2ncnc12 (single isomer, unassigned) [Example 66, N-(4-(6-isopropyl-5-(8-methoxy-[1,2,4]triazolo[1,5-a]pyridin-6-yl)-4H-pyrrolo[3,2-d]thiazol-2-yl)cyclohexyl)oxetan-3-amine] |
| 0.81 nM | 0.58 nM | 3500 nM | COc1cc(-c2[nH]c3sc(C4CCC(N5CC6(COC6)C5)CC4)nc3c2C(C)C)cn2ncnc12 (single isomer, unassigned) [Example 68, 6-(4-(6-isopropyl-5-(8-methoxy-[1,2,4]triazolo[1,5-a]pyridin-6-yl)-4H-pyrrolo[3,2-d]thiazol-2-yl)cyclohexyl)-2-oxa-6-azaspiro[3.3]heptane] |
| 4.17 nM | 35.6 nM | 6320 nM | COc1cc(-c2[nH]c3sc(C4CCC(N5CC6(COC6)C5)CC4)nc3c2C(C)C)cn2ncnc12 (single isomer, unassigned) [Example 69, 6-(4-(6-isopropyl-5-(8-methoxy-[1,2,4]triazolo[1,5-a]pyridin-6-yl)-4H-pyrrolo[3,2-d]thiazol-2-yl)cyclohexyl)-2-oxa-6-azaspiro[3.3]heptane] |
| 0.58 nM | 1.46 nM | 6610 nM | COc1cc(-c2[nH]c3sc(C4CCC(NC5(C)COC5)CC4)nc3c2C(C)C)cn2ncnc12 (single isomer, unassigned) [Example 70, N-(4-(6-isopropyl-5-(8-methoxy-[1,2,4]triazolo[1,5-a]pyridin-6-yl)-4H-pyrrolo[3,2-d]thiazol-2-yl)cyclohexyl)-3-methyloxetan-3-amine] |
